The term solubility denotes how much of the substance goes into solution per volume. By pKa is commonly meant the pH at which an ionisable group is half protonated. Lower therefore signals a group that gives up its proton readily.

In series [1] the test system is human Met-driven tumor cell lines. Description: in vitro anti-proliferative activity. In kind it is cell-based. The following applies: (nM), Met-driven tumor cell lines exclusively.
Series [2] has as its system human Met-amplified models. The experiment in a line: cellular anti-tumor activity as a single agent. Format: cell-based.
The next series can be described thus: solubility in water. In kind it is physicochemical.
The next series is described as follows: pKa (weak base). Format: physicochemical.
Series [3] can be described thus: Biopharmaceutics Classification System class / permeability characteristics. In kind it is physicochemical.
Series [4] is described as follows: stability to steam sterilization. In kind it is physicochemical. The procedure:
The concentrated pharmaceutical composition is prepared by usual methods for the preparation of aqueous liquid pharmaceutical composition. Generally, the process comprises a sterilization step, which is typically carried out by sterilizing filtration followed by aseptic filling.

Structures are written as SMILES. Converted amounts (≈) assume the structure as drawn. Like-named read-outs stand apart in the source and are kept apart here.

For `O=C(NCCN1CCOCC1)Nc1nc2ccc(Sc3nnc4ccc(-c5ccc(F)cc5)nn34)cc2s1` [Compound A, 1-(6-{[6-(4-fluorophenyl)[1,2,4]triazolo[4,3-b]pyridazin-3-yl]sulfanyl}-1,3-benzothiazol-2-yl)-3-(2-morpholin-4-ylethyl)urea], the anti-proliferative activity result in series [1] was “highly potent”. Further, the cellular anti-tumor activity entry in series [2] is “highly potent”. The solubility in “solubility in water” is under 0.1 µg/mL; in “solubility in water” (aqueous buffer, above pH 5), under 0.1 µg/mL; in the series “solubility in water” (pH 1, simulated gastric fluid), about 90 µg/mL (≈ 163 µM); in “solubility in water” (pH 3, aqueous buffer), about 20 µg/mL (≈ 36.3 µM). Moreover, the pKa in “pKa (weak base)” worked out at 6.4. In addition, the permeability characteristics entry in series [3] is “poor”. Besides, the “chemical stability on steam sterilization” value in series [4] is listed as “chemical degradation”.

These data come from patent US20150119391A1, “ANTI-TUMORAL COMPOSITION COMPRISING THE COMPOUND 1-(6--1,3-BENZOTHIAZOL-2-YL)-3-(2-MORPHOLIN-4-YLETHYL)UREA” (SANOFI, priority 2012, published 2015).
